From paper PMC8708872, “Discovery of a Novel Template, 7-Substituted 7-Deaza-4′-Thioadenosine Derivatives as Multi-Kinase Inhibitors” (Pharmaceuticals, 2021)

Legend:
Test in all cases: Kinome scan
Assay type in all cases: binding
CDK3 = molecular target: T1, CDK3 (Homo sapiens, UniProt Q00526); settings: 1000 nM
T1 construct: purchased Eurofins DiscoverX Corporation
Procedure: (§1) The kinome scan assays were carried out at Eurofins DiscoverX Corporation. For kinome scan profiling of compound 1g, it was screened at 1μM against 96 kinases (N = 2 independent experiments). The results for binding interactions are reported as % inhibition, where higher values indicate strong affinity; see the Supporting Information, Table S1 for full kinome profile.

BRAF = molecular target: T2, BRAF (Homo sapiens, UniProt P15056); settings: 1000 nM
T2 construct: purchased Eurofins DiscoverX Corporation
Procedure: as §1

MEK2 = molecular target: T3, MEK2 (Homo sapiens, UniProt P36507); settings: 1000 nM
T3 construct: purchased Eurofins DiscoverX Corporation
Procedure: as §1

TSSK1B = molecular target: T4, TSSK1B (Homo sapiens, UniProt Q9BXA7); settings: 1000 nM
T4 construct: purchased Eurofins DiscoverX Corporation
Procedure: as §1

RIOK2 = molecular target: T5, RIOK2 (Homo sapiens, UniProt Q9BVS4); settings: 1000 nM
T5 construct: purchased Eurofins DiscoverX Corporation
Procedure: as §1

PIK3CA = molecular target: T6, PIK3CA (Homo sapiens, UniProt P42336); settings: 1000 nM
T6 construct: purchased Eurofins DiscoverX Corporation
Procedure: as §1

[1] = molecular target: T7, ABL1(E255K)-phosphorylated (Homo sapiens, UniProt P00519, E255K); settings: 1000 nM
T7 construct: purchased Eurofins DiscoverX Corporation
Procedure: as §1

RAF1 = molecular target: T8, RAF1 (Homo sapiens, UniProt P04049); settings: 1000 nM
T8 construct: purchased Eurofins DiscoverX Corporation
Procedure: as §1

JNK2 = molecular target: T9, JNK2 (Homo sapiens, UniProt P45984); settings: 1000 nM
T9 construct: purchased Eurofins DiscoverX Corporation
Procedure: as §1

ALK = molecular target: T10, ALK (Homo sapiens, UniProt Q9UM73); settings: 1000 nM
T10 construct: purchased Eurofins DiscoverX Corporation
Procedure: as §1

TIE2 = molecular target: T11, TIE2 (Homo sapiens, UniProt Q02763); settings: 1000 nM
T11 construct: purchased Eurofins DiscoverX Corporation
Procedure: as §1

CDK2 = molecular target: T12, CDK2 (Homo sapiens, UniProt P24941); settings: 1000 nM
T12 construct: purchased Eurofins DiscoverX Corporation
Procedure: as §1

p38-beta = molecular target: T13, p38-beta (Homo sapiens, UniProt Q15759); settings: 1000 nM
T13 construct: purchased Eurofins DiscoverX Corporation
Procedure: as §1

VEGFR2 = molecular target: T14, VEGFR2 (Homo sapiens, UniProt P35968); settings: 1000 nM
T14 construct: purchased Eurofins DiscoverX Corporation
Procedure: as §1

ROCK2 = molecular target: T15, ROCK2 (Homo sapiens, UniProt O75116); settings: 1000 nM
T15 construct: purchased Eurofins DiscoverX Corporation
Procedure: as §1

CSF1R = molecular target: T16, CSF1R (Homo sapiens, UniProt P07333); settings: 1000 nM
T16 construct: purchased Eurofins DiscoverX Corporation
Procedure: as §1

BTK = molecular target: T17, BTK (Homo sapiens, UniProt Q06187); settings: 1000 nM
T17 construct: purchased Eurofins DiscoverX Corporation
Procedure: as §1

DYRK1B = molecular target: T18, DYRK1B (Homo sapiens, UniProt Q9Y463)
T18 construct: purchased Eurofins DiscoverX Corporation
Procedure: as §1

DCAMKL1 = molecular target: T19, DCAMKL1 (Homo sapiens, UniProt O15075); settings: 1000 nM
T19 construct: purchased Eurofins DiscoverX Corporation
Procedure: as §1

KIT = molecular target: T20, KIT (Homo sapiens, UniProt P10721); settings: 1000 nM
T20 construct: purchased Eurofins DiscoverX Corporation
Procedure: as §1

PDPK1 = molecular target: T21, PDPK1 (Homo sapiens, UniProt O15530); settings: 1000 nM
T21 construct: purchased Eurofins DiscoverX Corporation
Procedure: as §1

PLK3 = molecular target: T22, PLK3 (Homo sapiens, UniProt Q9H4B4); settings: 1000 nM
T22 construct: purchased Eurofins DiscoverX Corporation
Procedure: as §1

CSNK1D = molecular target: T23, CSNK1D (Homo sapiens, UniProt P48730)
T23 construct: purchased Eurofins DiscoverX Corporation
Procedure: as §1

IKK-beta = molecular target: T24, IKK-beta (Homo sapiens, UniProt O14920); settings: 1000 nM
T24 construct: purchased Eurofins DiscoverX Corporation
Procedure: as §1

MKNK1 = molecular target: T25, MKNK1 (Homo sapiens, UniProt Q9BUB5); settings: 1000 nM
T25 construct: purchased Eurofins DiscoverX Corporation
Procedure: as §1

TRKA (NTRK1) = molecular target: T26, TRKA (NTRK1) (Homo sapiens, UniProt P04629)
T26 construct: purchased Eurofins DiscoverX Corporation
Procedure: as §1

GSK3B = molecular target: T27, GSK3B (Homo sapiens, UniProt P49841); settings: 1000 nM
T27 construct: purchased Eurofins DiscoverX Corporation
Procedure: as §1

CDK11 = molecular target: T28, CDK11 (Homo sapiens, UniProt Q9BWU1); settings: 1000 nM
T28 construct: purchased Eurofins DiscoverX Corporation
Procedure: as §1

[2] = molecular target: T29, JAK3(JH1domain-catalytic) (Homo sapiens, UniProt P52333); settings: 1000 nM
T29 construct: JAK3(JH1domain-catalytic); purchased Eurofins DiscoverX Corporation
Procedure: as §1

FGFR2 = molecular target: T30, FGFR2 (Homo sapiens, UniProt P21802); settings: 1000 nM
T30 construct: purchased Eurofins DiscoverX Corporation
Procedure: as §1

SRPK3 = molecular target: T31, SRPK3 (Homo sapiens, UniProt Q9UPE1); settings: 1000 nM
T31 construct: purchased Eurofins DiscoverX Corporation
Procedure: as §1

MAPKAPK2 = molecular target: T32, MAPKAPK2 (Homo sapiens, UniProt P49137); settings: 1000 nM
T32 construct: purchased Eurofins DiscoverX Corporation
Procedure: as §1

AXL = molecular target: T33, AXL (Homo sapiens, UniProt P30530); settings: 1000 nM
T33 construct: purchased Eurofins DiscoverX Corporation
Procedure: as §1

PAK2 = molecular target: T34, PAK2 (Homo sapiens, UniProt Q13177); settings: 1000 nM
T34 construct: purchased Eurofins DiscoverX Corporation
Procedure: as §1

[3] = molecular target: T35, TYK2(JH1domain-catalytic) (Homo sapiens, UniProt P29597); settings: 1000 nM
T35 construct: TYK2(JH1domain-catalytic); purchased Eurofins DiscoverX Corporation
Procedure: as §1

CDK9 = molecular target: T36, CDK9 (Homo sapiens, UniProt P50750); settings: 1000 nM
T36 construct: purchased Eurofins DiscoverX Corporation
Procedure: as §1

PIM2 = molecular target: T37, PIM2 (Homo sapiens, UniProt Q9P1W9); settings: 1000 nM
T37 construct: purchased Eurofins DiscoverX Corporation
Procedure: as §1

TGFBR1 = molecular target: T38, TGFBR1 (Homo sapiens, UniProt P36897); settings: 1000 nM
T38 construct: purchased Eurofins DiscoverX Corporation
Procedure: as §1

SRC = molecular target: T39, SRC (Homo sapiens, UniProt P12931); settings: 1000 nM
T39 construct: purchased Eurofins DiscoverX Corporation
Procedure: as §1

EPHA2 = molecular target: T40, EPHA2 (Homo sapiens, UniProt P29317); settings: 1000 nM
T40 construct: purchased Eurofins DiscoverX Corporation
Procedure: as §1

[4] = molecular target: T41, RSK2(Kin.Dom.1-N-terminal) (Homo sapiens, UniProt P51812); settings: 1000 nM
T41 construct: RSK2(Kin.Dom.1-N-terminal); purchased Eurofins DiscoverX Corporation
Procedure: as §1

T18 sequence (Q9Y463 whole entry): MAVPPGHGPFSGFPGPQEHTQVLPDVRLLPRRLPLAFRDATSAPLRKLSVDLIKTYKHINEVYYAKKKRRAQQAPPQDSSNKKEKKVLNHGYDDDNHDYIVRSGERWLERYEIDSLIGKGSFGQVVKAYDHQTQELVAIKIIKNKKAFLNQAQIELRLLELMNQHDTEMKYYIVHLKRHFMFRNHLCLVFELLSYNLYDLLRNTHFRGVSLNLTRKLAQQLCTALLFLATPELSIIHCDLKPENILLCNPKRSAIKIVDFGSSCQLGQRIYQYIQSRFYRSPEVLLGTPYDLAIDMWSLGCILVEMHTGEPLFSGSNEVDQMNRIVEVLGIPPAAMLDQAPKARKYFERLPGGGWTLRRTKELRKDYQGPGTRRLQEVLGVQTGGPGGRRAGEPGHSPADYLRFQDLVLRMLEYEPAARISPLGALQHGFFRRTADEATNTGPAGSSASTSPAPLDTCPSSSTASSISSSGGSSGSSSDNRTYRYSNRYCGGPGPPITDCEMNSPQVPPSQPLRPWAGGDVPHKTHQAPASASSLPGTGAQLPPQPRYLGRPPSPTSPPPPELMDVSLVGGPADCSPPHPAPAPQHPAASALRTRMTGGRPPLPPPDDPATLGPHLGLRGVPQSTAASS
T26 sequence (P04629 33-796): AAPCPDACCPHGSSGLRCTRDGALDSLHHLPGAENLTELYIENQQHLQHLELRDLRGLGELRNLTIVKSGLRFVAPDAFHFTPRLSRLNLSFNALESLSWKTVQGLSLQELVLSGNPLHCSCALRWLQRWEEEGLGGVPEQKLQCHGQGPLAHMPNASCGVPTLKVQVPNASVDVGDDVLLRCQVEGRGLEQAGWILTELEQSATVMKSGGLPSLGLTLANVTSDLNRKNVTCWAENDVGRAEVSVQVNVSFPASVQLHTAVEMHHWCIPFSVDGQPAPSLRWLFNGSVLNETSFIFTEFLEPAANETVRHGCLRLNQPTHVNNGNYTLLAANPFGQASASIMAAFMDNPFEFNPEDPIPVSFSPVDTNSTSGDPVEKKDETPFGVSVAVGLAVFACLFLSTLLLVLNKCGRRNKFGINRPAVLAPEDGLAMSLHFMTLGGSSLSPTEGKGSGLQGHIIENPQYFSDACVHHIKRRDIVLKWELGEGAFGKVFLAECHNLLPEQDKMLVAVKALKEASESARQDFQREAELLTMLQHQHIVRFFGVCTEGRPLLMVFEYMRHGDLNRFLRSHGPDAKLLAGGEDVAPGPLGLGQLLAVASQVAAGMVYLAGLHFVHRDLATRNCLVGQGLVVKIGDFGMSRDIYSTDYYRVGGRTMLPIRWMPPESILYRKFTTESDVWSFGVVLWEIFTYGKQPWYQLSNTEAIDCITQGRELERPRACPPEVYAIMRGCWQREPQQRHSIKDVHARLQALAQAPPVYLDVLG
T23 sequence (P48730 whole entry): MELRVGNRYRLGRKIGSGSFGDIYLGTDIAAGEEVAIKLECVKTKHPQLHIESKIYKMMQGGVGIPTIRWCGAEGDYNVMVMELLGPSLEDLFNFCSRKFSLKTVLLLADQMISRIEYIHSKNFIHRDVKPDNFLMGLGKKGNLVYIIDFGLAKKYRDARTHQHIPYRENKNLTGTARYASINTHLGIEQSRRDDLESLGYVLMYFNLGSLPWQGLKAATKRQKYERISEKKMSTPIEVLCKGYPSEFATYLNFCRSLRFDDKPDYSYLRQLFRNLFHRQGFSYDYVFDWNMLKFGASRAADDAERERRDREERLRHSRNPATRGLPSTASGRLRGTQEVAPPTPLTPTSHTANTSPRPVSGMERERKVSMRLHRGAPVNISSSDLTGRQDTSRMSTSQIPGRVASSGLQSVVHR
T24 sequence (O14920 whole entry): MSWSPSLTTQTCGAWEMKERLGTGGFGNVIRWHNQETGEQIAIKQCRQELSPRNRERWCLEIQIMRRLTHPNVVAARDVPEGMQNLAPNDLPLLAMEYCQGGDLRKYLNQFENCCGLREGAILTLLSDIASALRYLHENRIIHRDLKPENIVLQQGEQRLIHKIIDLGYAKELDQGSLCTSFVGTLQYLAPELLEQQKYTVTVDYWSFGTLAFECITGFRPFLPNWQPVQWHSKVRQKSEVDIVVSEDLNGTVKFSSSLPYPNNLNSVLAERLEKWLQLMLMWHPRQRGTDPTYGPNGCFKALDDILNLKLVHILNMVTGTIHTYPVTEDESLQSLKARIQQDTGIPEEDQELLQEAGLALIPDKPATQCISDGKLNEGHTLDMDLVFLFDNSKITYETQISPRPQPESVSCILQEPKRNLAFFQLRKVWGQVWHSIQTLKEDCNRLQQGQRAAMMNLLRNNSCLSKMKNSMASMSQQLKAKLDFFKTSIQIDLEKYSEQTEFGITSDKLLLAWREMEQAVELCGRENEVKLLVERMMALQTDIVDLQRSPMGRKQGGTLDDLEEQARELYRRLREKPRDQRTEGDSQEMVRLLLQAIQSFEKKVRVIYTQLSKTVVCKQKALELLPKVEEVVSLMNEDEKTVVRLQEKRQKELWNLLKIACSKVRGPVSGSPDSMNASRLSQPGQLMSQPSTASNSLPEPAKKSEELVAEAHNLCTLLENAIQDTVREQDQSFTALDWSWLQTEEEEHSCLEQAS
T8 sequence (P04049 whole entry): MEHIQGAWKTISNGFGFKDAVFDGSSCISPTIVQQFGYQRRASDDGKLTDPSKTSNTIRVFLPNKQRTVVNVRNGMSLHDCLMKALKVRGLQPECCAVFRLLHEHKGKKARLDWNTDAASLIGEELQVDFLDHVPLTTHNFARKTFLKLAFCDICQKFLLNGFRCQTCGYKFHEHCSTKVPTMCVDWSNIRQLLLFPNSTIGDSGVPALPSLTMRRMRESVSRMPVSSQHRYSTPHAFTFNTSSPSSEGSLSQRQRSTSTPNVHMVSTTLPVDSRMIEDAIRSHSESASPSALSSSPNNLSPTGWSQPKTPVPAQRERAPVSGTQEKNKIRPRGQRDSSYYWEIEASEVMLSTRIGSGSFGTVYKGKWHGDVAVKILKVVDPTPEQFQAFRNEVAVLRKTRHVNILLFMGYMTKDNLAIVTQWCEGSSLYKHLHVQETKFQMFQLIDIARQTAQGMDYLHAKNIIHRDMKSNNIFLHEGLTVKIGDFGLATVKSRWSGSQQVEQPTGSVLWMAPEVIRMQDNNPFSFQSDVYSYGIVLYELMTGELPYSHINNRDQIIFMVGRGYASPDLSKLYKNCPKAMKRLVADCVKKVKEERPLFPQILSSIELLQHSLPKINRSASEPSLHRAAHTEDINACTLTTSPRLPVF
T30 sequence (P21802 22-821): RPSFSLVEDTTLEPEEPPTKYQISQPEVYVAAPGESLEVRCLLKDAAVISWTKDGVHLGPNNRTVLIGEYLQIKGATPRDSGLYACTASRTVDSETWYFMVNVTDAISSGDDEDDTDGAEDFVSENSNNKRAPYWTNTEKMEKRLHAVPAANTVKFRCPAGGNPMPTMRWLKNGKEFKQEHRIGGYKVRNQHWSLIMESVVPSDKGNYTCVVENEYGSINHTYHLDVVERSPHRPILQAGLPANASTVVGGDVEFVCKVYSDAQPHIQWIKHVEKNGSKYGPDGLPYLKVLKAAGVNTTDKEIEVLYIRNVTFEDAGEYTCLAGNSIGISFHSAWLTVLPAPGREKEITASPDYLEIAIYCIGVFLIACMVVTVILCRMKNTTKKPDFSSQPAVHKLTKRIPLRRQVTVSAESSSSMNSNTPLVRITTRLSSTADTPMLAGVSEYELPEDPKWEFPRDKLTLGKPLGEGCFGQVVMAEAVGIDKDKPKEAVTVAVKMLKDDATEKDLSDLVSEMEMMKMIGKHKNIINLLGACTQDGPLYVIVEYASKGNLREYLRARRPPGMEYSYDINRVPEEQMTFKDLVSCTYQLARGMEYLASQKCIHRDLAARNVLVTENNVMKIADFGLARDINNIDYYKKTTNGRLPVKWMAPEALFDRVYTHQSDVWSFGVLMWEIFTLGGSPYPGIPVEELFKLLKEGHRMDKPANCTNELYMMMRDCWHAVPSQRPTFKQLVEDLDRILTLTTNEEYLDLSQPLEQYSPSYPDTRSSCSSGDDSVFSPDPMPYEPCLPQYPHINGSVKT
T4 sequence (Q9BXA7 whole entry): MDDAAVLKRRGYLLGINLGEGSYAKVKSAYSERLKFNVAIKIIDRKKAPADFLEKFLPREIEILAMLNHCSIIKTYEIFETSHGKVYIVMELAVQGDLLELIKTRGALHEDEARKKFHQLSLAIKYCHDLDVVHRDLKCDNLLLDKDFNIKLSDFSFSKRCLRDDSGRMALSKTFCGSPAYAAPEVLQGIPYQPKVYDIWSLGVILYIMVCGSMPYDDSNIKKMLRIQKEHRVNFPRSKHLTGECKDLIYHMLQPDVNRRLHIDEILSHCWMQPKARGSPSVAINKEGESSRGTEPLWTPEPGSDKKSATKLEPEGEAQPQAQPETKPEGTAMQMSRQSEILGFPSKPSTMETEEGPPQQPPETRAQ
T34 sequence (Q13177 whole entry): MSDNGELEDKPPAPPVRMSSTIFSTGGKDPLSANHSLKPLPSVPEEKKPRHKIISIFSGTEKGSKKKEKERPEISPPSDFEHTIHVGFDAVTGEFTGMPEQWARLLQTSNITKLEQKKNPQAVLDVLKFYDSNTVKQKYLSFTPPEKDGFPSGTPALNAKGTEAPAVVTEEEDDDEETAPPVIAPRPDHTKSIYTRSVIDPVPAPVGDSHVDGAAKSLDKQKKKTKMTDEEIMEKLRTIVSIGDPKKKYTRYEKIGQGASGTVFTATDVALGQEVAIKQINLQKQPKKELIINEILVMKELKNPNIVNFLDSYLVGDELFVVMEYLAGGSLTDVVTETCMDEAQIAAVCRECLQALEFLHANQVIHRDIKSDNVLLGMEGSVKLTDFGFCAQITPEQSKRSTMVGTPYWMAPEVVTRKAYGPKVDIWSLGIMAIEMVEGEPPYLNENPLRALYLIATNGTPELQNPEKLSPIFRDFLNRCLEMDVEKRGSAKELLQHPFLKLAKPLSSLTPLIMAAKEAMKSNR

C#Cc1cn([C@@H]2S[C@H](CO)[C@@H](O)[C@H]2O)c2ncnc(N)c12 [Compound 1g, (2R,3R,4S,5R)-2-(4-Amino-5-ethynyl-7H-pyrrolo[2,3-d]pyrimidin-7-yl)-5-(hydroxymethyl)tetrahydrothiophene-3,4-diol]
inhibition at 1 µM (CDK3): 18%
inhibition at 1 µM (BRAF): 0%
inhibition at 1 µM (MEK2): 69%
inhibition at 1 µM (TSSK1B): 16%
inhibition at 1 µM (RIOK2): 0%
inhibition at 1 µM (PIK3CA): 7%
inhibition at 1 µM [1]: 18%
inhibition at 1 µM (RAF1): 8%
inhibition at 1 µM (JNK2): 0%
inhibition at 1 µM (ALK): 31%
inhibition at 1 µM (TIE2): 6%
inhibition at 1 µM (CDK2): 9%
inhibition at 1 µM (p38-beta): 3%
inhibition at 1 µM (VEGFR2): 30%
inhibition at 1 µM (ROCK2): 27%
inhibition at 1 µM (CSF1R): 20%
inhibition at 1 µM (BTK): 0%
remaining binding at 1 µM (DYRK1B; 1 μM): < 20%
inhibition at 1 µM (DYRK1B; 1000 nM, DYRK1B): 83%
inhibition at 1 µM (DCAMKL1): 6%
inhibition at 1 µM (KIT): 1%
inhibition at 1 µM (PDPK1): 11%
inhibition at 1 µM (PLK3): 0%
remaining binding at 1 µM (CSNK1D; 1 μM, read-out: activity remaining, CK1δ (CSNK1D)): < 20%
inhibition at 1 µM (CSNK1D; 1000 nM, CSNK1D): 91.3%
inhibition at 1 µM (IKK-beta): 0%
inhibition at 1 µM (MKNK1): 0%
remaining binding at 1 µM (TRKA (NTRK1); 1 μM): < 20%
inhibition at 1 µM (TRKA (NTRK1); 1000 nM, TRKA (NTRK1)): 95.1%
inhibition at 1 µM (GSK3B): 0%
inhibition at 1 µM (CDK11): 72.1%
inhibition at 1 µM [2]: 0%
inhibition at 1 µM (FGFR2): 12%
inhibition at 1 µM (SRPK3): 6%
inhibition at 1 µM (MAPKAPK2): 0%
inhibition at 1 µM (AXL): 7%
inhibition at 1 µM (PAK2): 44%
inhibition at 1 µM [3]: 70%
inhibition at 1 µM (CDK9): 4%
inhibition at 1 µM (PIM2): 3%
inhibition at 1 µM (TGFBR1): 11%
inhibition at 1 µM (SRC): 6%
inhibition at 1 µM (EPHA2): 28%
inhibition at 1 µM [4]: 55%
